Assay results taken from PubChem BioAssay (NCI).
Values joined by “and” are separate entries in the source; they are usually repeats but may differ in a detail not shown here. Identical values can stand only once.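 Cells were grown in 96-well plates and exposed to each compound for 48 hours at five concentrations; endpoints were interpolated linearly between bracketing concentrations, or set to the highest concentration if not reached. At the TGI there is no net growth.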

Key:
Experiment in all cases: NCI anticancer screen, dose series, 48 h
T-47D breast = test system: T-47D breast
CCRF-CEM leukemia = test system: CCRF-CEM leukemia
ACHN renal = test system: ACHN renal
SK-OV-3 ovarian = test system: SK-OV-3 ovarian
SNB-75 CNS = test system: SNB-75 CNS
COLO 205 colon = test system: COLO 205 colon
HOP-62 NSCLC = test system: HOP-62 NSCLC
SK-MEL-5 melanoma = test system: SK-MEL-5 melanoma
SK-MEL-28 melanoma = test system: SK-MEL-28 melanoma
SK-MEL-2 melanoma = test system: SK-MEL-2 melanoma

| Structure (SMILES) | TGI (T-47D breast) [µM] | TGI (CCRF-CEM leukemia) [µM] | TGI (ACHN renal) [µM] | TGI (SK-OV-3 ovarian) | TGI (SNB-75 CNS) | TGI (COLO 205 colon) [µM] | TGI (HOP-62 NSCLC) | TGI (SK-MEL-5 melanoma) | TGI (SK-MEL-28 melanoma) [µM] | TGI (SK-MEL-2 melanoma) [µM] |
| --- | --- | --- | --- | --- | --- | --- | --- | --- | --- | --- |
| O=c1[nH]ncc2[nH]c3c(c12)CCc1ccccc1-3 | 98.9 | > 100 | > 100 | > 100 µM | 76.1 µM | 30.3 | > 100 µM | 25 µM | > 100 | 57.7 |
| O=C1Nc2noc(=O)nc2NO1 | > 200 | > 200 | > 200 | > 200 µM | > 200 µM | > 200 | > 200 µM | > 200 µM | > 200 | > 200 |
| Cc1cc(NC(=O)NC(=O)c2ccccc2NC(=O)CN(C)C)ccc1Oc1ncc(Br)cn1 | > 100 | > 63.8 | > 100 | > 91.5 µM | 37.2 µM | 39.7 | > 76.4 µM | > 100 µM | > 56.2 | > 85.1 |
| C/C(=N\NC(=S)NC(C)(C)C)c1nc2ncccc2[nH]1 | > 33.7 | 35.1 | > 100 | 12.6 µM | > 84.5 µM | > 31.6 | > 84.9 µM | 14.1 µM | > 100 | > 80.3 |
| COc1ccc(C2C(=O)c3ccc(OC)cc3OC2c2cccnc2)cc1 (centres undefined) | > 100 | > 100 | > 100 | > 100 µM | > 100 µM | > 100 | > 100 µM | > 100 µM | > 100 | > 100 |
| O=C1/C(=C\c2cccc(Oc3ccccc3)c2)SC(c2ccccc2)N1c1cc(Cl)ccc1Cl (centres undefined) | > 100 | 3.62 | > 100 | > 100 µM | > 100 µM | > 100 | > 100 µM | > 100 µM | > 100 | > 100 |
| CCCCCCCCCCCCCCCCNc1nc(=O)n(C2OC(C)C(O)C2O)cc1F (centres undefined) | 43.8 | 42.6 | 29 | 37.4 µM | 33.1 µM | 58.7 | 33.8 µM | 43.4 µM | 37.5 | 38.9 |
| CC(C)Oc1cccc(N2C(CCc3c[nH]c4ccc(Br)cc34)=NS(=O)(=O)c3cnccc32)c1 | > 100 | > 100 | > 100 | > 100 µM | > 100 µM | 41.9 | > 100 µM | > 100 µM | > 100 | > 100 |
| COc1cc2c(cc1O)NC(=O)[C@@H]1C[C@@H](O)CN1C2=O | > 100 | > 100 | > 100 | > 100 µM | > 100 µM | > 100 | > 100 µM | > 100 µM | > 100 | > 100 |
| Clc1[nH]nc2ccccc12 | > 100 | > 100 | > 100 | > 100 µM | > 100 µM | > 100 | > 100 µM | > 100 µM | > 100 | > 100 |
| CCNC(=S)N/N=C(/C)c1cccc(/C(C)=N\NC(=S)NCC)n1 | > 45.4 | > 19.1 | > 66.9 | 73.8 µM | > 73.2 µM | > 23.5 | > 100 µM | 5.52 µM | > 100 | > 93.1 |
| COc1ccc(S(=O)(=O)NC(CCC(=O)NC(N)=O)C(=O)NC(N)=O)cc1 (centres undefined) | > 100 | > 100 | > 100 | > 100 µM | > 100 µM | > 100 | > 100 µM | > 100 µM | > 100 | > 100 |
| CC(=O)c1c(-c2ccc(Cl)cc2)c(C#N)c(=S)n(C2OC(CO)C(O)C(O)C2O)c1C (centres undefined) | > 100 | 63.7 | > 100 | > 100 µM | > 100 µM | 95.1 | > 100 µM | > 100 µM | 87.6 | 84.5 |
| Cc1ccc(S(=O)(=O)N/N=c2/sc3ccccc3n2C)cc1 | > 100 | > 100 | > 100 | > 100 µM | > 100 µM | > 100 | > 100 µM | > 100 µM | > 100 | > 100 |
| O=c1c2ccc(Cl)cc2oc2c(CSc3ccccc3)cccc12 | > 100 | > 100 | > 65.1 | > 100 µM | > 74.5 µM | > 100 | > 100 µM | > 92.1 µM | > 100 | > 100 |
| CC(=O)Oc1cc2c(cc1OCC(F)(F)F)[C@H]1CC[C@]3(C)[C@@H](OC(C)=O)CC[C@H]3[C@@H]1CC2=O | > 89.1 | 40.1 | 60 | 59.7 µM | 52.3 µM | 89.6 | > 70 µM | 49.2 µM | > 67.6 | 44.7 |
| COc1ccccc1N=Nc1c(O)ccc2ccccc12 | > 100 | > 100 | 27.2 | 29.5 µM and 38.3 µM | 41.8 µM and 39.7 µM | > 100 | 30.9 µM and 34.6 µM | > 89.9 µM and 59.2 µM | > 100 | > 100 |
| Cc1nc(C(=Nc2ccc(Br)cc2)Nn2cnnc2)no1 | > 100 | > 100 | > 100 | > 100 µM | > 100 µM | > 100 | > 100 µM | > 100 µM | > 100 | > 100 |
| Nc1c(C(=O)O)c2ccc([N+](=O)[O-])cc2c(=O)n1-c1nc2ccccc2s1 | > 100 | > 100 | > 100 | > 100 µM | > 100 µM | > 100 | > 100 µM | > 100 µM | > 100 | > 100 |
| CC1=NC(=N)N=C(C)C1N=Nc1ccc2nc(C)[nH]c2c1 (centres undefined) | > 100 | > 100 | > 100 | > 100 µM | > 100 µM | > 100 | > 100 µM |  | > 100 | > 100 |
| Cn1c(CO)ccc1-c1ccc(-c2ccc(CO)[se]2)[se]1 | > 100 | > 21 | > 75.3 | > 100 µM | > 100 µM | 9.23 | 40.8 µM | 6.74 µM | > 100 | 26.9 |
